Laboratory results as given in patent US4804664A, “Method and pharmaceutical preparation for treating chronic obstructive airway disease and cardiac disease, and intermediates for the preparation of therapeutically active xanthine derivatives” (priority 1978, dated 1989).
Entries after “also recorded” stand apart in the source; their conditions may differ. Read-outs that look alike come from different tables or passages of the source.

Tests used:
Guinea-Pig heart = assay: Isolated Guinea-Pig Hearts (Langendorff), chronotropic and inotropic potency; details: relative to theophylline (= 1); for Guinea-Pig heart Potency ratios of theophylline, chronotrop: cardioacceleration; for Guinea-Pig heart Potency ratios of theophylline, inotrop: inotropic
Procedure: From the bled guinea-pigs, the hearts were immediately removed and perfused with oxygenated Krebs solution at 37° according to Langendorff. The heart was mounted in a thermostatically controlled organ bath (25 ml) containing Krebs solution. A saline-filled, open-end polyethylene catheter was inserted into the right ventricle through the pulmonary artery. The catheter was fixed to the pulmonary artery by a ligature just above the valvular plane. It was connected to a pressure transduser (P23 AC), making it possible to record changes in intraventricular pressure. From these, the contraction frequency was obtained. Drugs were given as single bolus injections into the perfusion solution.
Potency ratios for relaxing effects on isolated bronchial smooth muscle, for cardioacceleration and for i.v. acute toxicity are illustrated. The relation between therapeutic ratios for theophylline and each compound is also calculated (column to the right).

in vivo [1] = details: mouse, in vivo, mice; for LD50 at 336 h: iv, i.v.; for selectivity ratio at 336 h: read-out: Ratio LD50 p.o. / LD50 i.v.
Procedure: (§1) Male NMRI mice, weighing 20-26 g, starved for 8 hr. were used. The compounds, dissolved in 0.5M NaOH and 0.85% NaCl-solution (pH 10.6-12.1) were administered as follows:
(§2) (a) intravenously, 0.1 ml/10 g at an injection rate of 0.3 ml per minute
(§3) At least seven dose levels, doses increasing in a geometric progression with a factor 1.2, were examined. Each dose was given to 5 animals. […] The position of extremities in dead animals indicated whether they had died in convulsions or not. The LD50 values±standard error were calculated using probit analysis.

mice [2] = assay: in vivo; details: for Ratio i.v. LD50 TA/(.): theophylline relative to compound, Table 2; for tonic convulsions: lethal doses
Procedure: as §1, §2, §3

in vivo [3] = details: mouse, in vivo, po, mice, p.o.
mice [4] = assay: in vivo; details: theophylline relative to compound, Table 2
[5] = theophylline therapy, cited from earlier work
[6] = probit analysis, read-out: LD50 ± SE i.v.
[7] = probit analysis, read-out: LD50 ± SE p.o.

Structure (SMILES) | Guinea-Pig heart Potency ratios of theophylline, chronotrop (Guinea-Pig heart) | Guinea-Pig heart Potency ratios of theophylline, inotrop (Guinea-Pig heart) | LD50 at 336 h (in vivo [1]; [6]) [mg/kg] | LD50 at 336 h (in vivo [1]; read-out: LD50 i.v.) [µmol/kg] | selectivity ratio at 336 h (in vivo [1]) | Ratio i.v. LD50 TA/(.) (mice [2]) | tonic convulsions (mice [2]) | LD50 at 336 h (in vivo [3]; [7]) [mg/kg] | LD50 at 336 h (in vivo [3]; read-out: LD50 p.o.) [µmol/kg] | Ratio p.o. LD50 TA/(.) (mice [4]) | major therapeutic effects ([5]; COAD and cardiac disease) | toxic side-effects [5]
CCCn1c(=O)[nH]c(=O)c2[nH]cnc21 [D 4028, 3,7-dihydro-3-propyl-1H-purine-2,6-dione] | 2 | 2.5 | 157 ± 7.1 | 810 | 3.1 | 1.24 | without convulsive effects | 501 ± 54 | 2550 | 0.87 |  | 
CCCCn1c(=O)[nH]c(=O)c2[nH]cnc21 [D 4031, 3-butyl-3,7-dihydro-1H-purine-2,6-dione] | 5 | 2 | 158 ± 8.8 | 750 | 2.6 | 1.35 | without convulsive effects | 408 ± 10.7 | 1950 | 1.14 |  | 
Cn1c(=O)c2[nH]cnc2n(C)c1=O [Theophylline, reference compound] |  |  |  |  |  |  | in lethal doses produced tonic convulsions; also recorded: convulsions which theophylline does |  |  |  | relax bronchial smooth muscle and stimulate heart muscle | most common are nausea and gastric distress, most serious are convulsions, which may lead to death
CC(C)Cn1c(=O)[nH]c(=O)c2[nH]cnc21 [D 4030, 3,7-dihydro-3-(2-methylpropyl)-1H-purine-2,6-dione] | 5 | 2 | 109 ± 5.9 | 520 | 2.8 | 1.94 | without convulsive effects | 304 ± 26 | 1450 | 1.53 |  | 
